According to patent US10231954B2, “Neurodegenerative therapies” (LYTIX BIOPHARMA AS, priority 2014, dated 2019):

Tests used:
Assay type in all cases: biochemical
Conditions in all cases: 100 micromolar inhibitor concentration; 100 is no change
[1] = molecular target: T1, SGK1 (Homo sapiens, UniProt O00141); assay: Kinase profiling SGK1
T1 sequence (O00141 1-431): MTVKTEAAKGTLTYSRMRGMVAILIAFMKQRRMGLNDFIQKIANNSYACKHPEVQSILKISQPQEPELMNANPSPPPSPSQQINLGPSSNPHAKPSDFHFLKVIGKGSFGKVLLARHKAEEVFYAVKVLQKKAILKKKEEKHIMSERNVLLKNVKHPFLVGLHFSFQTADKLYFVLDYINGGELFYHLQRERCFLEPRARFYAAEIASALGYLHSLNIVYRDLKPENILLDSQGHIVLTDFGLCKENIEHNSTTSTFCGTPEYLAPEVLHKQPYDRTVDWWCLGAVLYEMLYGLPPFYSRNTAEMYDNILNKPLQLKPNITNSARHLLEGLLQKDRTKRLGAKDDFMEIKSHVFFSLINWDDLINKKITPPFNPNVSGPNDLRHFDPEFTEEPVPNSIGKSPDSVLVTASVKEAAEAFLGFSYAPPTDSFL
Source text: (§1) Any value less that 25 is considered to be highly significant inhibition.

[2] = molecular target: T2, p38g MAPK (Homo sapiens, UniProt P53778); assay: Kinase profiling p38g MAPK
T2 sequence (P53778 1-367): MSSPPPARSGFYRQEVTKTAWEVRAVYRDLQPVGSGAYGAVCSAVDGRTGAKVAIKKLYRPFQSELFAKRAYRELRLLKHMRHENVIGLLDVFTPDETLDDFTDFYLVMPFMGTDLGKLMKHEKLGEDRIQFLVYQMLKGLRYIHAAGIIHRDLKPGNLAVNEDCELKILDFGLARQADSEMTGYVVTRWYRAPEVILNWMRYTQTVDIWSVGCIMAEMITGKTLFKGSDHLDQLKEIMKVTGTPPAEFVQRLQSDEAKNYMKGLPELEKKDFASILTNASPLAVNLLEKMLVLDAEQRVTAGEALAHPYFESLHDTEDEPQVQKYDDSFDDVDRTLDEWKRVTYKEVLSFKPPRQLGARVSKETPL
Source text: as §1

[3] = molecular target: PKCγ (Homo sapiens, UniProt P05129); assay: Kinase profiling PKCγ
Source text: as §1

[4] = molecular target: ERK1 (Homo sapiens, UniProt P27361); assay: Kinase profiling ERK1
Source text: as §1

[5] = molecular target: STK33 (Homo sapiens, UniProt Q9BYT3); assay: Kinase profiling STK33
Source text: as §1

[6] = molecular target: p38a MAPK (Homo sapiens, UniProt Q16539); assay: Kinase profiling p38a MAPK
Source text: as §1

Chain of p38a MAPK (Q16539 whole entry): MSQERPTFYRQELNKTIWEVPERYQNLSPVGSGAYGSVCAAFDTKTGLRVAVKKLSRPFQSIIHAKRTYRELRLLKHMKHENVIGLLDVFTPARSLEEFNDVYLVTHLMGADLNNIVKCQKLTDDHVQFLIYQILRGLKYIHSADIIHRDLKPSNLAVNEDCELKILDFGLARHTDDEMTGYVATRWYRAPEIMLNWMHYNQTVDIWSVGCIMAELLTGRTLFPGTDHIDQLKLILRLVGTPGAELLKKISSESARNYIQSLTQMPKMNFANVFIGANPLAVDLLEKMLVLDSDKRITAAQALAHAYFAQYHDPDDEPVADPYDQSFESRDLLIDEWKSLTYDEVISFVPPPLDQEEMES
Chain of STK33 (Q9BYT3 whole entry, species assumed): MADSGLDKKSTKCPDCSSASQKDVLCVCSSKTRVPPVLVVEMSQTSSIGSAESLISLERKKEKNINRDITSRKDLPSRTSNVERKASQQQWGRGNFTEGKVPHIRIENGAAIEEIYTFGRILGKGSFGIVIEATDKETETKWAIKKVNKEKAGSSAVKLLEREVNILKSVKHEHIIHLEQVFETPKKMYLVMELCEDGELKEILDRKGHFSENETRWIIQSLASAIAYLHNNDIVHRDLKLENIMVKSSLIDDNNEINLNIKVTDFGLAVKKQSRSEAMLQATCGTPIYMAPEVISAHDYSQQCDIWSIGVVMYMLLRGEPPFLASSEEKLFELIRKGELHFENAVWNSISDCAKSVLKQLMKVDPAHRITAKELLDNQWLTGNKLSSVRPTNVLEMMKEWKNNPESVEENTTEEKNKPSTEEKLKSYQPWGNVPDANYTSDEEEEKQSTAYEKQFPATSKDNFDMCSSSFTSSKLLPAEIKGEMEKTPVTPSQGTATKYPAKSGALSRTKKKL
Chain of ERK1 (P27361 whole entry, species assumed): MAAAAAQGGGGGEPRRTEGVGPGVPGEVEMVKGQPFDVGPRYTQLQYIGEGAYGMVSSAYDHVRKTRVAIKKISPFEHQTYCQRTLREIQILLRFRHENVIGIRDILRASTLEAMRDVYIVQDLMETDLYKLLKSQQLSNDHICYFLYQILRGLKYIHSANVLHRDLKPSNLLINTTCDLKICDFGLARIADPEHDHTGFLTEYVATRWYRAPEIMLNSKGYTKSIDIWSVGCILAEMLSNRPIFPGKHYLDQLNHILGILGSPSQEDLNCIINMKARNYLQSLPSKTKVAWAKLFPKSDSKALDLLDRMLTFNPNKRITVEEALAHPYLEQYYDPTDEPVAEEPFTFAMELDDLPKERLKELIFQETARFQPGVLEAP

`CC(=O)Nc1ccccc1C(=O)Nc1nc2ccc(O)cc2s1` [Compound 08-39] was tested, and the “residual kinase activity, SGK1” value [1] was 35, the “residual kinase activity, p38g MAPK” value [2] was 90 and the “residual kinase activity, PKCγ” value [3] was 44. For the same molecule, the “residual kinase activity, ERK1” value [4] was 18, the “residual kinase activity, STK33” value [5] was 61 and the “residual kinase activity, p38a MAPK” value [6] was 96.

For `COc1ccc2sc(NC(=O)c3ccc(NC(C)=O)cc3)nc2c1` [MS:LY-2-77], the “residual kinase activity, SGK1” value [1] was 101, the “residual kinase activity, p38g MAPK” value [2] was 121 and the “residual kinase activity, PKCγ” value [3] was 94. The “residual kinase activity, ERK1” value [4] was 87, the “residual kinase activity, STK33” value [5] was 99 and the “residual kinase activity, p38a MAPK” value [6] was 109.

For `CC(=O)NC(C)C(=O)Nc1nc2ccc(C(F)(F)F)cc2s1` (stereo not drawn) [Compound 03-80], the “residual kinase activity, SGK1” value [1] was 55, the “residual kinase activity, p38g MAPK” value [2] was 83 and the “residual kinase activity, PKCγ” value [3] was 87. The “residual kinase activity, ERK1” value [4] was 94, the “residual kinase activity, STK33” value [5] was 60 and the “residual kinase activity, p38a MAPK” value [6] was 79.

`CC(=O)Nc1cccc(C(=O)Nc2nc3cc(O)ccc3s2)c1` [MS:LY-2-89] was tested, and the “residual kinase activity, SGK1” value [1] was 28, the “residual kinase activity, p38g MAPK” value [2] was 64 and the “residual kinase activity, PKCγ” value [3] was 63. The “residual kinase activity, ERK1” value [4] was 54, the “residual kinase activity, STK33” value [5] was 37 and the “residual kinase activity, p38a MAPK” value [6] was 18.

In the case of `COc1ccc2sc(NC(=O)c3cccc(NC(C)=O)c3)nc2c1` [MS:LY-2-85], the “residual kinase activity, SGK1” value [1] is reported as 75, the “residual kinase activity, p38g MAPK” value [2] is reported as 80 and the “residual kinase activity, PKCγ” value [3] is reported as 80. For the same molecule, the “residual kinase activity, ERK1” value [4] was 86, the “residual kinase activity, STK33” value [5] was 75 and the “residual kinase activity, p38a MAPK” value [6] was 89.

`CC(=O)Nc1ccc(C(=O)Nc2nc3cc(O)ccc3s2)cc1` [MS:LY-2-87] was tested, and the “residual kinase activity, SGK1” value [1] was 43, the “residual kinase activity, p38g MAPK” value [2] was 93 and the “residual kinase activity, PKCγ” value [3] was 74. For the same molecule, the “residual kinase activity, ERK1” value [4] was 70, the “residual kinase activity, STK33” value [5] was 51 and the “residual kinase activity, p38a MAPK” value [6] was 73.

With `CC(=O)Nc1cccc(C(=O)Nc2nc3ccc(O)cc3s2)c1` [Compound 03-58] the “residual kinase activity, SGK1” value [1] was 41, the “residual kinase activity, p38g MAPK” value [2] was 64 and the “residual kinase activity, PKCγ” value [3] was 86. The “residual kinase activity, ERK1” value [4] was 84, the “residual kinase activity, STK33” value [5] was 45 and the “residual kinase activity, p38a MAPK” value [6] was 81.
